According to the supplement of paper PMC8253809:

What was measured:
DIPGX29 [1] = H3.3 K27M diffuse intrinsic pontine glioma line; experiment: EC50 (inflection of fitted growth-inhibition curve) (log10 M)
In short: (§1)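 EC50 and maximal response (yFin) were derived from the lowest-AICc fit, either three- or four-parameter log-logistic. The data were pooled CellTiter-Glo luminescence values, log2-transformed and normalised per plate to % activity between negative (solvent) and positive controls. Patient-derived pHGG/DIPG cell lines and astrocyte controls on 1% Geltrex-coated 384-well plates received a 10-point threefold dilution series (mean top concentration 35 μM) by pin tool, in triplicate, for 7 days (iAstro 3 days) at 37 °C, 5% CO2.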

DIPGX37 [2] = H3.3 K27M diffuse intrinsic pontine glioma line; experiment: as above
In short: as §1

HGGX39 [3] = paediatric high-grade glioma line; experiment: as above
In short: as §1

HGGX6 [4] = H3.3 G34R paediatric high-grade glioma line; experiment: as above
In short: as §1

DIPGX29 [5] = experiment: maximal growth inhibition (yFin) relative to DMSO / staurosporine; higher = more efficacious
In short: as §1

DIPGX37 [6] = experiment: as above
In short: as §1

HGGX39 [7] = experiment: as above
In short: as §1

HGGX6 [8] = experiment: as above
In short: as §1

DIPGX29 [9] = experiment: area under dose-response curve of % growth inhibition (log2 RLU vs DMSO / staurosporine), 1e-11 to 1e-4 M (% x log10 M); higher = more growth inhibition
In short: (§2)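 Cells were exposed in triplicate for 7 days (iAstro: 3 days) at 37 °C, 5% CO2 to a 10-point series of threefold dilutions with a mean top concentration of 35 μM. These were patient-derived pHGG/DIPG lines plus astrocytes, grown on 384-well plates coated with 1% Geltrex. Readout was CellTiter-Glo luminescence, log2-transformed and set per plate to % activity between solvent and positive controls, from which area under the curve was derived by trapezoid rule on a log-logistic fit or, failing that, a smoothing spline.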

DIPGX37 [10] = experiment: as above
In short: as §2

HGGX39 [11] = experiment: as above
In short: as §2

HGGX6 [12] = experiment: as above
In short: as §2

| Compound | EC50 (log10 M) (DIPGX29 [1]) | EC50 (log10 M) (DIPGX37 [2]) | EC50 (log10 M) (HGGX39 [3]) | EC50 (log10 M) (HGGX6 [4]) | maximal growth inhibition (DIPGX29 [5]) [%] | maximal growth inhibition (DIPGX37 [6]) [%] | maximal growth inhibition (HGGX39 [7]) [%] | maximal growth inhibition (HGGX6 [8]) [%] | area under dose-response curve (DIPGX29 [9]) | area under dose-response curve (DIPGX37 [10]) | area under dose-response curve (HGGX39 [11]) | area under dose-response curve (HGGX6 [12]) |
| --- | --- | --- | --- | --- | --- | --- | --- | --- | --- | --- | --- | --- |
| CC1=C(C(=O)OC(C)C)C(c2cccc([N+](=O)[O-])c2)C(C(=O)OC2CN(C(c3ccccc3)c3ccccc3)C2)=C(N)N1 (configuration not stated) [AZELNIDIPINE] | -4.91 | -4.91 | -4.94 | -4.89 | 81.9 | 86.1 | 99.9 | 91.3 | 74.8 | 83.2 | 93.9 | 80.8 |
| Cc1c(-c2ccc(O)cc2)n(Cc2ccc(OCCN3CCCCCC3)cc2)c2ccc(O)cc12 [BAZEDOXIFENE] | -4.97 | -4.91 | -5 | -4.93 | 79.1 | 83.5 | 87.3 | 75.9 | 76.7 | 75.4 | 87.8 | 70.5 |
| CN(C)CCCOc1nn(Cc2ccccc2)c2ccccc12 [BENZYDAMINE] | -5.29 | -5.21 | -5.5 | -5.19 | 47.7 | 85.5 | 81.4 | 53.3 | 61.8 | 105 | 123 | 63.8 |
| Cc1nnc(C[C@@H]2C=C(c3ccc(Cl)cc3)c3ccccc3-n3c(C)nnc32)o1 [BET-BAY 002] | -5.5 | -6.21 | -5.19 | -5.39 | 21.8 | 26.3 | 39.7 | 27 | 29.9 | 58.2 | 42.3 | 35.1 |
| CCN1CCN(c2cc(-c3ccc(F)cc3)c3c(n2)CCCCCC3)CC1 [BLONANSERIN] | -5.17 | -4.93 | -4.94 | -4.81 | 53.1 | 77.4 | 85.3 | 79.5 | 63.1 | 73.5 | 81.4 | 64.4 |
| COc1cc(Nc2c(C#N)cnc3cc(OCCCN4CCN(C)CC4)c(OC)cc23)c(Cl)cc1Cl [BOSUTINIB] | -4.78 | -4.76 | -4.74 | -4.75 | 74.1 | 71.8 | 79.3 | 75.7 | 75.5 | 80.4 | 71.8 | 74.3 |
| CCOC(=O)Nc1cc(-c2ccc(C)c(NS(C)(=O)=O)c2)nn2c(C)nnc12 [BROMOSPORINE] | -5.25 | -5.23 | -5.01 | -5.51 | 25.2 | 53.4 | 42.7 | 21.4 | 32.2 | 66.5 | 43.6 | 33 |
| CCCCOc1ccc(CC(=O)NO)cc1 [BUFEXAMAC] | -4.28 | -4.2 | -4.28 | -4.33 | 57.1 | 76.7 | 95.6 | 79.2 | 15.7 | 15.4 | 27.2 | 25.5 |
| Nc1cc(C(F)(F)F)c(-c2cc(N3CCOCC3)nc(N3CCOCC3)n2)cn1 [BUPARLISIB] | -5.14 | -5.55 | -5.56 | -6.21 | 67.8 | 59.3 | 41.2 | 21.8 | 81.3 | 95.5 | 58.2 | 43.9 |
| Clc1ccccc1C(c1ccccc1)(c1ccccc1)n1ccnc1 [CLOTRIMAZOLE] | -4.92 |  | -5.21 | -5.22 | 29.5 |  | 23 | 26.3 | 27.2 | 13.3 | 27.8 | 31.5 |
| CC[C@H](C)n1cc(C)c2c(C(=O)NCc3c(C)cc(C)[nH]c3=O)cc(-c3ccc(N4CCNCC4)nc3)cc21 [GSK126] | -4.87 | -4.88 |  | -4.83 | 76.4 | 76.7 |  | 74.4 | 66.1 | 74.3 | 13.1 | 61.2 |
| CC(C)NC[C@@H](C(=O)N1CCN(c2ncnc3c2[C@H](C)C[C@H]3O)CC1)c1ccc(Cl)cc1 [IPATASERTIB] | -5.18 | -5.27 |  | -5.67 | 50.3 | 21.5 |  | 31.8 | 64.7 | 25.8 | 11.9 | 49 |
| Clc1ccc(NN=C(c2ccccc2)c2ccccn2)nc1 [JIB-04] | -5.13 |  | -5.02 | -5.07 | 47.2 |  | 34.3 | 50.7 | 63.6 | 25.7 | 34.4 | 61.4 |
| CN(C)CCCNC(=O)c1ccc(-c2cc(O)c3ncccc3c2)cc1 [ML324] | -4.82 |  |  | -4.67 | 43.7 |  |  | 44.1 | 35.8 | 4.39 | 14.9 | 29.4 |
| CCC(CC)(NC(=O)C(C)C)C(=O)N[C@@H](CCCN=C(N)N)C(=O)NC1(C(=O)NC(c2ccc(F)cc2)c2ccc(F)cc2)CCCC1 [MM-102] | -5.17 |  |  | -5.03 | 33.9 |  |  | 63.5 | 39.7 | 6.41 | 12.2 | 65.5 |
| O=C(O)C[C@H](O)C[C@H](O)/C=C/c1c(C2CC2)nc2ccccc2c1-c1ccc(F)cc1 [PITAVASTATIN] | -5.04 |  | -6.26 | -5.36 | 49.2 |  | 92.9 | 66.4 | 75.6 | 121 | 215 | 95.1 |
| CC[C@]1(O)C[C@@H]2CN(CCc3c([nH]c4ccccc34)[C@@](C(=O)OC)(c3cc4c(cc3OC)N(C)[C@H]3[C@@](O)(C(=O)OC)[C@H](OC(C)=O)[C@]5(CC)C=CCN6CC[C@]43[C@@H]65)C2)C1 [VINBLASTINE] | -5.63 |  |  | -5.46 | 50.4 |  |  | 23.5 | 88.8 | 58.2 | 53.5 | 58.8 |
